Assay results as given in ChEMBL document CHEMBL1201862, “PubChem BioAssay data set” (2004).
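Test compounds were applied to cells in 96-well plates for 48 hours at 5 doses. GI50: concentration for 50% inhibition of growth.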 The source made the active and inactive calls. No stated cut-off is given here; in the data, active = GI50 up to about 1.1 µM and inactive = higher.

Tests used:
Assay in all cases: NCI anticancer screen, dose series, 48 h
MDA-MB-231 = test system: MDA-MB-231
MCF7 = test system: MCF7
U-251 = test system: U-251
IGROV-1 = test system: IGROV-1
RPMI-8226 = test system: RPMI-8226
HT-29 = test system: HT-29
DU-145 = test system: DU-145
786-0 = test system: 786-0
BT-549 = test system: BT-549
M14 = test system: M14
ACHN = test system: ACHN
UACC-257 = test system: UACC-257
Hs-578T = test system: Hs-578T
HOP-92 = test system: HOP-92
NCI-H522 = test system: NCI-H522
OVCAR-8 = test system: OVCAR-8
NCI-H23 = test system: NCI-H23
SNB-75 = test system: SNB-75
SK-MEL-28 = test system: SK-MEL-28

Measured: GI50

O=C(NNC(=O)c1ccc(Cl)cc1NC(=O)C12CC3CC(CC(C3)C1)C2)c1ccc(Cl)cc1
inactive: MDA-MB-231 22 µM | MCF7 27.9 µM | U-251 20.2 µM | IGROV-1 15 µM | RPMI-8226 15.7 µM | HT-29 28.2 µM | DU-145 22.8 µM | 786-0 22.5 µM | BT-549 41.7 µM | M14 21.2 µM | ACHN 23.6 µM | UACC-257 25.8 µM | Hs-578T 21.5 µM | HOP-92 17.5 µM | NCI-H522 14.7 µM | OVCAR-8 32.7 µM | NCI-H23 39.7 µM

Nc1ccc(Cc2ccc(/N=C\c3ccc(OCc4cccc(COc5ccc(/C=N\c6ccc(Cc7ccc(N)cc7)cc6)cc5)n4)cc3)cc2)cc1
inactive: MDA-MB-231 27 µM | MCF7 > 100 µM | U-251 41 µM | SNB-75 13.2 µM | IGROV-1 > 100 µM | RPMI-8226 > 100 µM | HT-29 > 100 µM | DU-145 > 100 µM | 786-0 65.9 µM | BT-549 > 100 µM | M14 > 100 µM | ACHN > 100 µM | UACC-257 > 100 µM | Hs-578T 65.6 µM | SK-MEL-28 > 100 µM | NCI-H522 > 100 µM | OVCAR-8 62.8 µM | NCI-H23 99.1 µM

Cc1nn(C(=O)c2ccncc2)c2c1C(c1ccccc1[N+](=O)[O-])SC(=N)N2 (stereo unspecified)
inactive: MDA-MB-231 > 10 µM | MCF7 > 10 µM | SNB-75 > 10 µM | IGROV-1 > 10 µM | RPMI-8226 > 10 µM | HT-29 > 10 µM | DU-145 > 10 µM | 786-0 > 10 µM | BT-549 > 10 µM | M14 > 10 µM | ACHN > 10 µM | UACC-257 > 10 µM | Hs-578T > 10 µM | HOP-92 > 10 µM | SK-MEL-28 > 10 µM | OVCAR-8 > 10 µM | NCI-H23 > 10 µM

CCCCCC/C=C\CCCCCCCCCc1cccc(OC)c1O
inactive: MDA-MB-231 > 100 µM | MCF7 75.5 µM | U-251 > 100 µM | SNB-75 > 100 µM | IGROV-1 > 100 µM | RPMI-8226 > 100 µM | HT-29 > 100 µM | DU-145 > 100 µM | 786-0 > 100 µM | BT-549 > 100 µM | M14 > 100 µM | ACHN > 100 µM | UACC-257 > 100 µM | Hs-578T > 100 µM | SK-MEL-28 > 100 µM | NCI-H522 47.1 µM | OVCAR-8 38.3 µM | NCI-H23 86.9 µM

c1ccc(-c2cs[s+]c2)cc1
inactive: MDA-MB-231 > 100 µM | MCF7 > 100 µM | U-251 > 100 µM | SNB-75 > 100 µM | IGROV-1 > 100 µM | HT-29 > 100 µM | DU-145 > 100 µM | 786-0 > 100 µM | BT-549 > 100 µM | M14 > 100 µM | ACHN > 100 µM | UACC-257 > 100 µM | Hs-578T > 100 µM | HOP-92 > 100 µM | SK-MEL-28 > 100 µM | NCI-H522 46.2 µM | OVCAR-8 > 100 µM | NCI-H23 > 100 µM

CCCNC(=S)N/C=C1/C(=O)Oc2ccccc2C1=O
inactive: MDA-MB-231 > 100 µM | MCF7 > 100 µM | U-251 > 100 µM | SNB-75 33.2 µM | IGROV-1 89.9 µM | HT-29 > 100 µM | DU-145 54.1 µM | 786-0 > 100 µM | BT-549 > 100 µM | M14 > 100 µM | ACHN 94.8 µM | UACC-257 > 100 µM | Hs-578T 50.4 µM | HOP-92 53 µM | SK-MEL-28 > 100 µM | NCI-H522 > 100 µM | OVCAR-8 > 100 µM | NCI-H23 > 100 µM

O=c1[nH]c(=O)n(C2OC(CO)C(O)C(F)C2O)cc1F (stereo unspecified)
inactive: MDA-MB-231 > 100 µM | MCF7 > 100 µM | U-251 > 100 µM | RPMI-8226 > 100 µM | HT-29 > 100 µM | DU-145 > 100 µM | 786-0 > 100 µM | BT-549 > 100 µM | M14 > 100 µM | ACHN > 100 µM | UACC-257 > 100 µM | Hs-578T > 100 µM | HOP-92 > 100 µM | SK-MEL-28 > 100 µM | NCI-H522 > 100 µM | OVCAR-8 > 100 µM | NCI-H23 > 100 µM

CC(Nc1cc(=O)n(C)c(=O)[nH]1)c1ccccc1 (stereo unspecified)
inactive: MDA-MB-231 > 100 µM | MCF7 > 100 µM | U-251 > 100 µM | SNB-75 > 100 µM | IGROV-1 > 100 µM | HT-29 > 100 µM | DU-145 > 100 µM | 786-0 > 100 µM | BT-549 > 100 µM | M14 > 100 µM | ACHN > 100 µM | UACC-257 > 100 µM | Hs-578T > 100 µM | HOP-92 15.5 µM | SK-MEL-28 > 100 µM | NCI-H522 > 100 µM | OVCAR-8 > 100 µM | NCI-H23 > 100 µM
